Data on ten compounds can be found in patent US20240101576A1, “HETEROCYCLIC INHIBITORS OF EGFR AND/OR HER2, FOR USE IN THE TREATMENT OF CANCER” (Scorpion Therapeutics, Inc., priority 2020, published 2024).

Format in all cases: cell-based
In one test the target is T1, EGFR WT (Ba/F3 cells) (Homo sapiens, UniProt P00533).
T1 construct: expressed in transfected cells; host or cells: Ba/F3 (murine pro-B cells), retroviral transduction, puromycin selection, maintained with EGF
Description: Inhibitor activity on EGFR-dependent cell growth (CellTiter-Glo, 72 h), Ba/F3 EGFR WT. The settings on record: read-out: BaF3 WT IC50. The essentials:
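This growth assay used Ba/F3 cells that depend on wild-type EGFR and are kept in EGF without IL3. Compounds were made up as 10 mM DMSO stocks and diluted 3-fold over 10 points. 120 nL went onto 600 cells/well. After 72 hours, 40 μL CellTiter-Glo was added and luminescence read on EnVision after 30 min.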
A general note: ATP-based viability assays read luminescence as a measure of living cells.

Test [1] has as its target T2, EGFR exon 20 FQEA Ins A763_V764 (Ba/F3 cells) (Homo sapiens, UniProt P00533, INS763FQEA).
T2 construct: expressed in transfected cells; host or cells: Ba/F3 (murine pro-B cells), retroviral transduction, puromycin selection, IL3-independent pool
Description: Inhibitor activity on EGFR-dependent cell growth (CellTiter-Glo, 72 h), Ba/F3 EGFR exon 20 FQEA Ins. The settings on record: read-out: BaF3 FQEA IC50. The essentials: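 72 h proliferation, Ba/F3 EGFR mutants (no IL3, puromycin-selected pools, EGFR confirmed by Western blot). Seeding of 400 L858R, 600 L858R/C797S and 800 exon 19del/FQEA cells per well. CellTiter-Glo used; controls were […] (high) and medium alone (low).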

In test [2] the target is T3, EGFR exon 20 ASV Ins V769_D770 (Ba/F3 cells) (Homo sapiens, UniProt P00533, INS769ASV).
T3 construct: expressed in transfected cells; host or cells: Ba/F3 (murine pro-B cells), retroviral transduction, puromycin selection, IL3-independent pool
The test is described as follows: Inhibitor activity on EGFR-dependent cell growth (CellTiter-Glo, 72 h), Ba/F3 EGFR exon 20 ASV Ins. The settings on record: read-out: BaF3 ASV IC50. The essentials:
(§1)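 IC50s derive from a sigmoidal dose–response fit of CellTiter-Glo signal. The signal was normalised between […]-treated cells and cell-free medium. Ba/F3 mutant-EGFR cells, seeded at 400–800/well depending on the line, had 72 h of exposure to a 10-point, 3-fold compound series.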

Test [3] deals with T4, EGFR exon 20 SVD Ins D770_N771 (Ba/F3 cells) (Homo sapiens, UniProt P00533, INS770SVD).
T4 construct: expressed in transfected cells; host or cells: Ba/F3 (murine pro-B cells), retroviral transduction, puromycin selection, IL3-independent pool
The test is described as follows: Inhibitor activity on EGFR-dependent cell growth (CellTiter-Glo, 72 h), Ba/F3 EGFR exon 20 SVD Ins. To be noted: read-out: BaF3 SVD IC50. The essentials:
as §1

T1 sequence (P00533 25-1210): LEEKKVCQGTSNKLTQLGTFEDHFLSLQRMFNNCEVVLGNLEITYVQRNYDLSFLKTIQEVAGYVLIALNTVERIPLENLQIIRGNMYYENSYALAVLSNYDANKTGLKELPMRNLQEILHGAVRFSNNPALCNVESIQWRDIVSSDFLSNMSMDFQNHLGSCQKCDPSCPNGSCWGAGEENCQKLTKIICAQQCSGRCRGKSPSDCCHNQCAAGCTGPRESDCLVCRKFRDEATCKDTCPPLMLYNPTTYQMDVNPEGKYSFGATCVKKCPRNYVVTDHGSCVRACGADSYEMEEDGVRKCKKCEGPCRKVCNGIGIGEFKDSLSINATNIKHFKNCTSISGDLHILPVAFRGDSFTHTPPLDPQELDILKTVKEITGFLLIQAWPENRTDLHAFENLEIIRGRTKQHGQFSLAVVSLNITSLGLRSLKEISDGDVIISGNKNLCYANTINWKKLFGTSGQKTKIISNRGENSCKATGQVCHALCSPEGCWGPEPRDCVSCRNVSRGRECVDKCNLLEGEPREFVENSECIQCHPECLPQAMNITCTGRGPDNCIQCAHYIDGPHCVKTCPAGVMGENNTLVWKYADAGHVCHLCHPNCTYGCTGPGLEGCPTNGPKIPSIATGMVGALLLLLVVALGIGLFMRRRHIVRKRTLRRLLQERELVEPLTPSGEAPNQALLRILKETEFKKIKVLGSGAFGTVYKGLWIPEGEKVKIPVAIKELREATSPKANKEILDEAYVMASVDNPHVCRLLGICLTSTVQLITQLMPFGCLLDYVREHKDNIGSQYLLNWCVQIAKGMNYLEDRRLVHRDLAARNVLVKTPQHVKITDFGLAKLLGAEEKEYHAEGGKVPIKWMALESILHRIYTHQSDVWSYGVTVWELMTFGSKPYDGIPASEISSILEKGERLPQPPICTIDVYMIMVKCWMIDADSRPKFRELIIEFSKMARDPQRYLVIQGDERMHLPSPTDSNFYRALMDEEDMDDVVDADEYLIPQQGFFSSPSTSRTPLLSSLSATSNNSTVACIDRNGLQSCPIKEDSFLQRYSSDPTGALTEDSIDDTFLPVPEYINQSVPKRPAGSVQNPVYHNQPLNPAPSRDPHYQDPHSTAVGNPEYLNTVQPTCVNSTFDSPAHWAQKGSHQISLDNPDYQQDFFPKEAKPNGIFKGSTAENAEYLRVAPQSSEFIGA
T3 sequence (P00533 with tags, fused parts or gaps INS769ASV): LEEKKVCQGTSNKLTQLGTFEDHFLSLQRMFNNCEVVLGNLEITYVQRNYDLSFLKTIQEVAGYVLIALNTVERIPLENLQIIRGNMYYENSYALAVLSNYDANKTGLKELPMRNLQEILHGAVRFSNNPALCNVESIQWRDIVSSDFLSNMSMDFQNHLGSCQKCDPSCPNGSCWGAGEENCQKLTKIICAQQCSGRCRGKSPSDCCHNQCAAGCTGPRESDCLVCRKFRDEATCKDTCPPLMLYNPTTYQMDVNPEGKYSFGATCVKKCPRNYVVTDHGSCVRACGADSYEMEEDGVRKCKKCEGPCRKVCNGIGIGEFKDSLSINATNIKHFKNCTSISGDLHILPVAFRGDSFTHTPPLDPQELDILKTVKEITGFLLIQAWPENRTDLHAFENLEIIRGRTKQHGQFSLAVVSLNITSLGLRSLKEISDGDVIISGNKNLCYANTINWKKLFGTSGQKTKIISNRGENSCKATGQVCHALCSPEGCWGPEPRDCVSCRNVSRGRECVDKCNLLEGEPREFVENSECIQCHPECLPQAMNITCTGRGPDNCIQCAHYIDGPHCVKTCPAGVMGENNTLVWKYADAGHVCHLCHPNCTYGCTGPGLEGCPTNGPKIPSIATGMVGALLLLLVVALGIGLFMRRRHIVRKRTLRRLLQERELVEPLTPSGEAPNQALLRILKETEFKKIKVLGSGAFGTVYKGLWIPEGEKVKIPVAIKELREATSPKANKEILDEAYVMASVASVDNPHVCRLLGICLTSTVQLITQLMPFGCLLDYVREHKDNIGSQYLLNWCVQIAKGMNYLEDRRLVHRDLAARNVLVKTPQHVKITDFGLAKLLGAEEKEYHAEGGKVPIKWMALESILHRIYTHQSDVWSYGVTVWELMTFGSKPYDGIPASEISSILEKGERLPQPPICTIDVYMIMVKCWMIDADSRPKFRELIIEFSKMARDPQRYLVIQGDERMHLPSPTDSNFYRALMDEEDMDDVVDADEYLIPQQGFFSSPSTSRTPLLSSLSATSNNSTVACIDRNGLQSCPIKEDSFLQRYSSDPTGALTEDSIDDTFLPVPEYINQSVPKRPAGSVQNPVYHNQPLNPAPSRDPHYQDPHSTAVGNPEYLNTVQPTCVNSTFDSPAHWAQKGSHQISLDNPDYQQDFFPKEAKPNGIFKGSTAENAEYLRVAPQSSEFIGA
T4 sequence (P00533 with tags, fused parts or gaps INS770SVD): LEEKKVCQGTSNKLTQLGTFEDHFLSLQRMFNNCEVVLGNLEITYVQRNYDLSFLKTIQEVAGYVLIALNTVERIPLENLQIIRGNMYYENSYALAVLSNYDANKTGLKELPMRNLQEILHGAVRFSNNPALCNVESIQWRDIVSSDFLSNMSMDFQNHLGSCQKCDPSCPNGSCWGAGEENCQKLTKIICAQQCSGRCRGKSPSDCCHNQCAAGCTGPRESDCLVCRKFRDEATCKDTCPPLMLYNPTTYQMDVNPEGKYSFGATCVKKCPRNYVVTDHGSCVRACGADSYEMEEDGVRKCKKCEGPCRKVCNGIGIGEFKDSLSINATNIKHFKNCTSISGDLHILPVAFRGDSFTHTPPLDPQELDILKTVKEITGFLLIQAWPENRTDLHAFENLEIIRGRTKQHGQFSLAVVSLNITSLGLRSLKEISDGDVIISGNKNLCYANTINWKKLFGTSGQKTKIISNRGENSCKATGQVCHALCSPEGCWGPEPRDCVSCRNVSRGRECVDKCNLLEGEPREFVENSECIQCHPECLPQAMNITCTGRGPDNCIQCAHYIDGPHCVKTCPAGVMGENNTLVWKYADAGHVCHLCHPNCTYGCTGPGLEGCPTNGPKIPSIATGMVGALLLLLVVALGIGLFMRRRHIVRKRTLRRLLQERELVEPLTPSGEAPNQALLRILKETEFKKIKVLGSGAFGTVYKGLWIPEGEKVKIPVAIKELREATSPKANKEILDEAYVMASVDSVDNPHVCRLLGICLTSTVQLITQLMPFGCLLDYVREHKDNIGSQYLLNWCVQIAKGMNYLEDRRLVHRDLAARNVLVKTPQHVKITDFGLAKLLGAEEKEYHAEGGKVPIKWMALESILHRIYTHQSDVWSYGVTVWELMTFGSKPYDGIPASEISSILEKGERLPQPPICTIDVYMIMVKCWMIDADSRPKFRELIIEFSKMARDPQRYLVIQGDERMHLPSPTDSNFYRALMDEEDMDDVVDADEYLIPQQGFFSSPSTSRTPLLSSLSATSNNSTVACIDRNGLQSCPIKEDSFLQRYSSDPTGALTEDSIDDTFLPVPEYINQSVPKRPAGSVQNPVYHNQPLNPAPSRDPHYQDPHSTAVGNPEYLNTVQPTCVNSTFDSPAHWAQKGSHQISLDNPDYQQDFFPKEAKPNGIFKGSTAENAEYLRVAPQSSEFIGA
T2 sequence (P00533 with tags, fused parts or gaps INS763FQEA): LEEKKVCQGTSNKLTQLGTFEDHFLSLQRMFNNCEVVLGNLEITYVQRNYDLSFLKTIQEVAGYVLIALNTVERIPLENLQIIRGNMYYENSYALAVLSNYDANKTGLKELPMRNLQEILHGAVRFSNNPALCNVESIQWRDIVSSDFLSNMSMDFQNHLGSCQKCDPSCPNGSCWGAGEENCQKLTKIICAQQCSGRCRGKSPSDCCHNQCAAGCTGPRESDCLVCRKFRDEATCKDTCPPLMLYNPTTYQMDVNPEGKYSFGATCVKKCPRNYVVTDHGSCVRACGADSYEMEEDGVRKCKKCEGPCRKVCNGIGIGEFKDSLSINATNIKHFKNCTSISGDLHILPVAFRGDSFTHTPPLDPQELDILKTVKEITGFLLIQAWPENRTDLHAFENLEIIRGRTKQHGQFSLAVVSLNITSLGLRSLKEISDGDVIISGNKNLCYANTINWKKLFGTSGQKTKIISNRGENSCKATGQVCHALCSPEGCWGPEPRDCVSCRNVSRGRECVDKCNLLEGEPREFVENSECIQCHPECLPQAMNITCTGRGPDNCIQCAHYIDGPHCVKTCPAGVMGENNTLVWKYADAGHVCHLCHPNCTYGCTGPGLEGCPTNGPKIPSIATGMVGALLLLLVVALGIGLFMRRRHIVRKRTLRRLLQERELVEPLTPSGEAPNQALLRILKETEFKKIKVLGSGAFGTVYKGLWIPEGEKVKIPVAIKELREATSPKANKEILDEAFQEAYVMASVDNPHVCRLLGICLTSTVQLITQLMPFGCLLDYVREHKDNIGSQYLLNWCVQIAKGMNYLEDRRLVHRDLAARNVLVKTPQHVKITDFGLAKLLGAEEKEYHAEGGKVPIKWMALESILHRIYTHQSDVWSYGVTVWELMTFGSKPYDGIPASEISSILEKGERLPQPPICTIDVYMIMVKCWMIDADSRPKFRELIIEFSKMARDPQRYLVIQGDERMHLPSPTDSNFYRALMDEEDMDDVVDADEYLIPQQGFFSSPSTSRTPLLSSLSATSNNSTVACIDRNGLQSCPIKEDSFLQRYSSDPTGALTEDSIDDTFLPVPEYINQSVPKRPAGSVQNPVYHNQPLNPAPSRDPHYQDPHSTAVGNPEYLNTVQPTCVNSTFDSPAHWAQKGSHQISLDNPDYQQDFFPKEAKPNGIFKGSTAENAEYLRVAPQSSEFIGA

Usually IC50 stands for the point on the concentration scale where inhibition reaches its midpoint. On to `COc1ncc2nccc(-c3[nH]c4c(c3Nc3cccc(Cl)c3OC)C(=O)N[C@@H](C(F)(F)F)C4)c2n1` [Compound 507, (6R)-3-[(3-chloro-2-methoxyphenyl)amino]-2-{2-methoxypyrido[3,2-d]pyrimidin-8-yl}-6-(trifluoromethyl)-1H,5H,6H,7H-pyrrolo[3,2-c]pyridin-4-one], for which the IC50 at EGFR WT (Ba/F3 cells) is 100 to 1000 nM; in test [1] it was less than 100 nM; in test [2], less than 100 nM; in test [3], less than 100 nM.
As for `COc1nc2c(-c3[nH]c4c(c3Nc3cccc(Cl)c3OC)C(=O)NCC4)ccnc2cc1F` [compound 477, 3-[(3-chloro-2-methoxyphenyl)amino]-2-(7-fluoro-6-methoxy-1,5-naphthyridin-4-yl)-1H,5H,6H,7H-pyrrolo[3,2-c]pyridin-4-one], the IC50 on EGFR WT (Ba/F3 cells) is 100 to 1000 nM; in test [1], less than 100 nM; in test [2], less than 100 nM; in test [3] it was less than 100 nM.
On to `COc1cc2nccc(-c3[nH]c4c(c3Nc3cccc(F)c3OC)C(=O)NCC4)c2nc1OC` [Compound 807, 2-(6,7-dimethoxy-1,5-naphthyridin-4-yl)-3-[(3-fluoro-2-methoxyphenyl)amino]-1H,5H,6H,7H-pyrrolo[3,2-c]pyridin-4-one], for which the IC50 (on EGFR WT (Ba/F3 cells); in test [1]; in test [2]; in test [3]) was less than 100 nM each time.
With `C=CC[C@H]1CNC(=O)c2c1[nH]c(-c1ccncc1F)c2Nc1cccc(Cl)c1OC` [compound 811], the IC50 (at EGFR WT (Ba/F3 cells); in test [1]; in test [2]; in test [3]) was more than 1000 nM throughout.
Take `COc1c(Cl)cccc1Nc1c(-c2ccnc3ccc(C4CC4)nc23)[nH]c2c1C(=O)NCC2` [compound 752, 3-[(3-chloro-2-methoxyphenyl)amino]-2-(6-cyclopropyl-1,5-naphthyridin-4-yl)-1H,5H,6H,7H-pyrrolo[3,2-c]pyridin-4-one]: the IC50 (on EGFR WT (Ba/F3 cells); in test [1]; in test [2]; in test [3]) was less than 100 nM each time.
For `C=CC(=O)N1CC[C@]2(CNC(=O)c3c2[nH]c(-c2ccncc2F)c3Nc2cccc(Cl)c2OC)C1` [compound 520], the half-inhibitory concentration (IC50) on EGFR WT (Ba/F3 cells) is 100 to 1000 nM; in test [1] it was less than 100 nM; in test [2], 100 to 1000 nM; in test [3], 100 to 1000 nM.
For the compound `COc1ncc2nccc(-c3[nH]c4c(c3Nc3cccc(Cl)c3Cl)C(=O)NCC4)c2n1` [Compound 803, 3-[(2,3-dichlorophenyl)amino]-2-[2-methoxypyrido[3,2-d]pyrimidin-8-yl]-1H,5H,6H,7H-pyrrolo[3,2-c]pyridin-4-one], the IC50 on EGFR WT (Ba/F3 cells) was 100 to 1000 nM; in test [1], less than 100 nM; in test [2], less than 100 nM; in test [3] it was less than 100 nM.
With `COc1c(F)cccc1Nc1c2c(n(C)c1-c1ccncc1F)CCNC2=O` [Compound 789, 3-[(3-fluoro-2-methoxyphenyl)amino]-2-(3-fluoropyridin-4-yl)-1-methyl-5H,6H,7H-pyrrolo[3,2-c]pyridin-4-one], the IC50 (at EGFR WT (Ba/F3 cells); in test [1]; in test [2]; in test [3]) was more than 1000 nM each time.
For `COc1c(Cl)cccc1Nc1c(-c2ccnc(N)n2)[nH]c2c1C(=O)NC(CO)C2` (stereo not shown) [Compound 751, 2-(2-aminopyrimidin-4-yl)-3-[(3-chloro-2-methoxyphenyl)amino]-6-(hydroxymethyl)-1H,5H,6H,7H-pyrrolo[3,2-c]pyridin-4-one], the IC50 at EGFR WT (Ba/F3 cells) was more than 1000 nM; in test [1] it was 100 to 1000 nM; in test [2] it was 100 to 1000 nM; in test [3], 100 to 1000 nM.
`COc1c(Cl)cccc1Nc1c(-c2ccncc2F)[nH]c2c1C(=O)NC[C@H]2CC1COC1` [468b]: the IC50 on EGFR WT (Ba/F3 cells) was more than 1000 nM; in test [1], 100 to 1000 nM; in test [2] it was 100 to 1000 nM; in test [3] it was 100 to 1000 nM.
